Assay results taken from ChEMBL document CHEMBL1124303, “Conformational requirements of substrates for activity with phenylethanolamine N-methyltransferase” (J Med Chem, 1988).

What was measured:
[1] = molecular target: T1, Phenylethanolamine N-methyltransferase (Bos taurus, UniProt P10938); experiment: Binding affinity to phenylethanolamine N-methyltransferase(PNMT) in bovine
T1 sequence (P10938 whole entry): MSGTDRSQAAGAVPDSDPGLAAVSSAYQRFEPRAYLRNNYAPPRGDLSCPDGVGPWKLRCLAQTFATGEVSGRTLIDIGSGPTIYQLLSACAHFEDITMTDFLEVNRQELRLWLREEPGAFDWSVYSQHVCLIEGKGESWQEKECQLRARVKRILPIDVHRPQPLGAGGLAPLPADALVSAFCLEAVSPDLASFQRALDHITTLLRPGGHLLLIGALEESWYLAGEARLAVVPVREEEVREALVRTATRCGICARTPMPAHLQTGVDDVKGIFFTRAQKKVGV

[2] = Ratio of Vmax to Km of compound was determined; format: ADME
[3] = Vmax value was measured; format: ADME
[4] = Km value was measured; format: ADME

Row | Structure (SMILES) | Ki [1] | Ratio [2] | Vmax [3] | Km [4]
1 | OC1CNCc2ccccc21 (stereo not drawn) | 176 µM | – | – | –
2 | N[C@H]1CCc2ccccc2[C@@H]1O | 9.4 µM | – | – | –
3 | N[C@H]1CCc2ccccc2[C@H]1O | – | 68 | 0.15 nmol/min/mg | 22 µM
4 | c1ccc2c(c1)CCNC2 [1,2,3,4-TETRAHYDROISOQUINOLINE] | 10 µM | – | – | –
5 | NC[C@@H](O)c1ccccc1 | – | – | 2.2 nmol/min/mg | 70 µM
